Test results as given in patent US12653814B2, “Benzimidazolone-based cinnamamide derivative as TRPV1 antagonist and pharmaceutical composition for treatment or prevention of pain containing same as active ingredient” (JMACKEM CO., LTD, priority 2020, dated 2026).

How the values were obtained:
human TRPV1 (hTRPV1) [1] = biological target: T1, human TRPV1 (hTRPV1) (Homo sapiens, UniProt Q8NER1); assay: Ca2+ influx assay, antagonism against capsaicin in hTRPV1-HEK recombinant cells; assay type: cell-based; settings: capsaicin 10 nM as activator, Fluo4-NW fluorescence, read-out: hTRPV1 IC50 [cap]
T1 construct: host or cells: HEK (PrecisION hTRPV1-HEK recombinant cell line)
T1 sequence (Q8NER1 whole entry): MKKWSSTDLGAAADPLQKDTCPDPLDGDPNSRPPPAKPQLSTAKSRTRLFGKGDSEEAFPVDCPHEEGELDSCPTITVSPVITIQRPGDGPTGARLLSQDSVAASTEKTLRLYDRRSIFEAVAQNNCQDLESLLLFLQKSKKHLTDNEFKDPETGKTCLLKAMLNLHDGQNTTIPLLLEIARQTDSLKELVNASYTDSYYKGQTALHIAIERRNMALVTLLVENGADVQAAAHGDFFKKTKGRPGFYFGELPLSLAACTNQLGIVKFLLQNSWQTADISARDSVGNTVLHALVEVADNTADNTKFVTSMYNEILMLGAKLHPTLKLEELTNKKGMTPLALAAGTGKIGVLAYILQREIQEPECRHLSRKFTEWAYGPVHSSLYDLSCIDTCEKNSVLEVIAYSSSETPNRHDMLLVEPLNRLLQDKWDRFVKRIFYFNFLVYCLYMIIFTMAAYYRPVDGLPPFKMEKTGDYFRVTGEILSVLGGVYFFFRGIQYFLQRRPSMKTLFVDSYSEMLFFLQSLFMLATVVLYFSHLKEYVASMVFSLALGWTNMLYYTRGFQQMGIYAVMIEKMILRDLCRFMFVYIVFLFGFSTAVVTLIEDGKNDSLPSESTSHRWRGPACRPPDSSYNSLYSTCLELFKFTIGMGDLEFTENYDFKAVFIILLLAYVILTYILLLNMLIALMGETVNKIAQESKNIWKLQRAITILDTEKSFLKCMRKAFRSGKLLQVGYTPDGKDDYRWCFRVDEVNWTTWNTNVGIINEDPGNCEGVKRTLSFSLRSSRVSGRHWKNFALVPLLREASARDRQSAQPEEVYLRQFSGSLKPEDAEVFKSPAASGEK

human TRPV1 (hTRPV1) [2] = biological target: T1, human TRPV1 (hTRPV1); assay: Evaluation of human pH inhibitory activity in hTRPV1-HEK recombinant cells; assay type: cell-based; settings: inhibition of activation at final pH 6.0, test substance 3 μM
Protocol: Evaluation of Human pH Inhibitory Activity
PrecisION™ hTRPV1-HEK recombinant cells (CYL3063) were purchased from Millipore and used. After culturing the above cells under the conditions of 37° C. and 5% CO2, the cells were inoculated in a 96-well plate at the density of 5×10^4 cells/well, followed by culture for 16 hours. Then, the medium was removed and 100 uL of a staining solution was put into each well, followed by culture for 30 minutes under the conditions of 37° C. and 5% CO2. After 30 minutes, all of the existing staining solution was removed and replaced with 100 uL of HBSS. Thereafter, the cells were acclimatized to room temperature for 15 minutes, and the test substances (example compounds and comparative example compounds of the present invention) were added to each well, followed by culture at room temperature for 15 minutes. Then, the final pH was adjusted to 6.0 using MES, and fluorescence was measured (ex485/em535). In the pH assay, the efficacy of the drug was evaluated using BCTC as a TRPV1 antagonist.

Compound	IC50 (human TRPV1 (hTRPV1) [1]) [nM]	hTRPV1 pH (%, 3 μM) (human TRPV1 (hTRPV1) [2]) [%]
CC1CCN(c2nc(C(F)(F)F)ccc2/C=C/C(=O)Nc2cccc3[nH]c(=O)[nH]c23)CC1 [Example 1, (E)-3-(2-(4-methylpiperidin-1-yl)-6-(trifluoromethyl)pyridin-3-yl)-N-(2-oxo-2,3-dihydro-1H-benzo[d]imidazol-4-yl)acrylamide]	37	78.62
CCC1CCN(c2nc(C(F)(F)F)ccc2/C=C/C(=O)Nc2cccc3[nH]c(=O)[nH]c23)CC1 [Example 2, (E)-3-(2-(4-ethylpiperidin-1-yl)-6-(trifluoromethyl)pyridin-3-yl)-N-(2-oxo-2,3-dihydro-1H-benzo[d]imidazol-4-yl)acrylamide]	28.8	86.72
O=C(/C=C/c1ccc(C(F)(F)F)nc1N1CCOCC1)Nc1cccc2[nH]c(=O)[nH]c12 [Example 5, (E)-3-(2-morpholino-6-(trifluoromethyl)pyridin-3-yl)-N-(2-oxo-2,3-dihydro-1H-benzo[d]imidazol-4-yl)acrylamide]	16.3	94.79
CCN(CC)c1nc(C(F)(F)F)ccc1/C=C/C(=O)Nc1cccc2[nH]c(=O)[nH]c12 [Example 6, (E)-3-(2-(diethylamino)-6-(trifluoromethyl)pyridin-3-yl)-N-(2-oxo-2,3-dihydro-1H-benzo[d]imidazol-4-yl)acrylamide]	10.7	76.92
CCCN(CCC)c1nc(C(F)(F)F)ccc1/C=C/C(=O)Nc1cccc2[nH]c(=O)[nH]c12 [Example 7, (E)-3-(2-(dipropylamino)-6-(trifluoromethyl)pyridin-3-yl)-N-(2-oxo-2,3-dihydro-1H-benzo[d]imidazol-4-yl)acrylamide]	23.3	89.87
CCCCOc1nc(C(F)(F)F)ccc1/C=C/C(=O)Nc1cccc2[nH]c(=O)[nH]c12 [Example 8, (E)-3-(2-butoxy-6-(trifluoromethyl)pyridin-3-yl)-N-(2-oxo-2,3-dihydro-1H-benzo[d]imidazol-4-yl)acrylamide]	27.3	81.24
CCCCCCOc1nc(C(F)(F)F)ccc1/C=C/C(=O)Nc1cccc2[nH]c(=O)[nH]c12 [Example 9, (E)-3-(2-(hexyloxy)-6-(trifluoromethyl)pyridin-3-yl)-N-(2-oxo-2,3-dihydro-1H-benzo[d]imidazol-4-yl)acrylamide]	> 50	
O=C(/C=C/c1ccc(C(F)(F)F)nc1OC1CCC1)Nc1cccc2[nH]c(=O)[nH]c12 [Example 11, (E)-3-(2-cyclobutoxy-6-(trifluoromethyl)pyridin-3-yl)-N-(2-oxo-2,3-dihydro-1H-benzo[d]imidazol-4-yl)acrylamide]	37.8	88.23
O=C(/C=C/c1ccc(C(F)(F)F)nc1OC1CCCC1)Nc1cccc2[nH]c(=O)[nH]c12 [Example 12, (E)-3-(2-(cyclopentyloxy)-6-(trifluoromethyl)pyridin-3-yl)-N-(2-oxo-2,3-dihydro-1H-benzo[d]imidazol-4-yl)acrylamide]	31.5	81.25
O=C(/C=C/c1ccc(C(F)(F)F)nc1OCC(F)(F)F)Nc1cccc2[nH]c(=O)[nH]c12 [Example 14, (E)-N-(2-oxo-2,3-dihydro-1H-benzo[d]imidazol-4-yl)-3-(2-(2,2,2-trifluoroethoxy)-6-(trifluoromethyl)pyridin-3-yl)acrylamide]	34.5	94.03
CC(C)(C)COc1nc(C(F)(F)F)ccc1/C=C/C(=O)Nc1cccc2[nH]c(=O)[nH]c12 [Example 15, (E)-3-(2-(neopentyloxy)-6-(trifluoromethyl)pyridin-3-yl)-N-(2-oxo-2,3-dihydro-1H-benzo[d]imidazol-4-yl)acrylamide]	202	
CC1CC1COc1nc(C(F)(F)F)ccc1/C=C/C(=O)Nc1cccc2[nH]c(=O)[nH]c12 (centres unmarked) [Example 16, (E)-3-(2-((2-methylcyclopropyl)methoxy)-6-(trifluoromethyl)pyridin-3-yl)-N-(2-oxo-2,3-dihydro-1H-benzo[d]imidazol-4-yl)acrylamide]	86	97.34
O=C(/C=C/c1ccc(C2CC2)nc1OCC1CC1)Nc1cccc2[nH]c(=O)[nH]c12 [Example 18, (E)-3-(6-cyclopropyl-2-(cyclopropylmethoxy)pyridin-3-yl)-N-(2-oxo-2,3-dihydro-1H-benzo[d]imidazol-4-yl)acrylamide]	117	
CC(C)c1ccc(/C=C/C(=O)Nc2cccc3[nH]c(=O)[nH]c23)c(OCC2CC2)n1 [Example 19, (E)-3-(2-(cyclopropylmethoxy)-6-isopropylpyridin-3-yl)-N-(2-oxo-2,3-dihydro-1H-benzo[d]imidazol-4-yl)acrylamide]	410	
CC(C)(C)c1ccc(/C=C/C(=O)Nc2cccc3[nH]c(=O)[nH]c23)c(OCC2CC2)n1 [Example 23, (E)-3-(6-(tert-butyl)-2-(cyclopropylmethoxy)pyridin-3-yl)-N-(2-oxo-2,3-dihydro-1H-benzo[d]imidazol-4-yl)acrylamide]	217	
O=C(/C=C/c1ccc(C(F)(F)F)nc1SCC1CC1)Nc1cccc2[nH]c(=O)[nH]c12 [Example 28, (E)-3-(2-((cyclopropylmethyl)thio)-6-(trifluoromethyl)pyridin-3-yl)-N-(2-oxo-2,3-dihydro-1H-benzo[d]imidazol-4-yl)acrylamide]	> 100	
O=C(/C=C/c1ccc(C(F)(F)F)nc1SC1CCCCC1)Nc1cccc2[nH]c(=O)[nH]c12 [Example 29, (E)-3-(2-(cyclohexylthio)-6-(trifluoromethyl)pyridin-3-yl)-N-(2-oxo-2,3-dihydro-1H-benzo[d]imidazol-4-yl)acrylamide]	> 100	
CC(C)(C)CCc1nc(C(F)(F)F)ccc1/C=C/C(=O)Nc1cccc2[nH]c(=O)[nH]c12 [Example 40, (E)-3-(2-(3,3-dimethylbutyl)-6-(trifluoromethyl)pyridin-3-yl)-N-(2-oxo-2,3-dihydro-1H-benzo[d]imidazol-4-yl)acrylamide]	178	
O=C(/C=C/c1ccc(C(F)(F)F)nc1C1CCCC1)Nc1cccc2[nH]c(=O)[nH]c12 [Example 41, (E)-3-(2-cyclopentyl-6-(trifluoromethyl)pyridin-3-yl)-N-(2-oxo-2,3-dihydro-1H-benzo[d]imidazol-4-yl)acrylamide]	123	
CC(C)c1cc(/C=C/C(=O)Nc2cccc3[nH]c(=O)[nH]c23)n(-c2cccc(Cl)c2)n1 [Example 51, (E)-3-(1-(3-chlorophenyl)-3-isopropyl-1H-pyrazol-5-yl)-N-(2-oxo-2,3-dihydro-1H-benzo[d]imidazol-4-yl)acrylamide]	> 160	
CC1(c2cc(/C=C/C(=O)Nc3cccc4[nH]c(=O)[nH]c34)n(-c3cccc(Cl)c3)n2)CC1 [Example 52, (E)-3-(1-(3-chlorophenyl)-3-(1-methylcyclopropyl)-1H-pyrazol-5-yl)-N-(2-oxo-2,3-dihydro-1H-benzo[d]imidazol-4-yl)acrylamide]	> 160	
CC(C)c1nc(-c2cccc(Cl)c2)c(/C=C/C(=O)Nc2cccc3[nH]c(=O)[nH]c23)s1 [Example 55, (E)-3-(4-(3-chlorophenyl)-2-isopropylthiazol-5-yl)-N-(2-oxo-2,3-dihydro-1H-benzo[d]imidazol-4-yl)acrylamide]	> 160	
CC(C)(C)c1nc(-c2cccc(Cl)c2)c(/C=C/C(=O)Nc2cccc3[nH]c(=O)[nH]c23)s1 [Example 58, (E)-3-(2-(tert-butyl)-4-(3-chlorophenyl)thiazol-5-yl)-N-(2-oxo-2,3-dihydro-1H-benzo[d]imidazol-4-yl)acrylamide]	103	
CC(F)(F)c1cc(C2CC2C(=O)Nc2cccc3[nH]c(=O)[nH]c23)n(-c2cccc(Cl)c2)n1 (centres unmarked) [Example 64, 2-(1-(3-chlorophenyl)-3-(1,1-difluoroethyl)-1H-pyrazol-5-yl)-N-(2-oxo-2,3-dihydro-1H-benzo[d]imidazol-4-yl)cyclopropane-1-carboxamide]	> 160	
CC(C)c1cc(C2CC2C(=O)Nc2cccc3[nH]c(=O)[nH]c23)n(-c2cccc(Cl)c2)n1 (centres unmarked) [Example 65, 2-(1-(3-chlorophonyl)-3-isopropyl-1H-pyrazol-5-yl)-N-(2-oxo-2,3-dihydro-1H-benzo[d]imidazol-4-yl)cyclopropane-1-carboxamide]	> 160	
O=C(Nc1cccc2[nH]c(=O)[nH]c12)C1CC1c1cc(C2CC2)nn1-c1cccc(Cl)c1 (centres unmarked) [Example 66, 2-(1-(3-chlorophenyl)-3-cyclopropyl-1H-pyrazol-5-yl)-N-(2-oxo-2,3-dihydro-1H-benzo[d]imidazol-4-yl)cyclopropane-1-carboxamide]	> 160	
CC1(c2cc(C3CC3C(=O)Nc3cccc4[nH]c(=O)[nH]c34)n(-c3cccc(Cl)c3)n2)CC1 (centres unmarked) [Example 67, 2-(1-(3-chlorophenyl)-3-(1-methylcyclopropyl)-1H-pyrazol-5-yl)-N-(2-oxo-2,3-dihydro-1H-benzo[d]imidazol-4-yl)cyclopropane-1-carboxamide]	> 160	
CC(C)(C)c1cc(C2CC2C(=O)Nc2cccc3[nH]c(=O)[nH]c23)n(-c2cccc(Cl)c2)n1 (centres unmarked) [Example 68, 2-(3-(tert-butyl)-1-(3-chlorophenyl)-1H-pyrazol-5-yl)-N-(2-oxo-2,3-dihydro-1H-benzo[d]imidazol-4-yl)cyclopropane-1-carboxamide]	139	
